{"source": "patent US11708318B2", "about": "“Polymorphic forms of RAD1901-2HCL” (Radius Pharmaceuticals, Inc., priority 2017, dated 2023)", "assay": "Solubility assessment of Sample 1 (majorly Form 1) in 24 solvent systems", "format": "physicochemical", "settings": "organic solvent or mixture", "method": "Solubility assessment was carried out on the Sample 1 of RAD1901-2HCl (majorly Form 1 shown by XRPD) in 24 solvent systems in HPLC vials (sample IDs: A1 to A24). RAD1901-2HCl (25 mg) was treated with increasing volumes of solvent until the material fully dissolved or until a maximum of 60 vol had been used (Table 13).\nAfter each addition of solvent, the system was stirred for 5 to 10 minutes at 25° C., then shaken at 50° C. for 5 to 10 minutes, and observations made. Samples were allowed to stand at room temperature for 5 min before the addition of a new aliquot of solvent. After the assessment was completed, the suspensions obtained were matured (maturation) and the clear solutions were cooled (cooling) and slowly evaporated (evaporation) as described below. All solids recovered from maturation, cooling and evaporation experiments were analyzed by high resolution XRPD.", "note": "Where two headings read alike, the source gives them in different places.", "data": [{"compound": "CCNCCc1ccc(CN(CC)c2cc(OC)ccc2[C@@H]2CCc3cc(O)ccc3C2)cc1.Cl.Cl", "note": "[Sample 1]", "values": [{"measurement": "solubility", "setting": "1,2-dimethoxyethane, 50 °C, thermodynamic from solid, 1,2-dimethoxyethane, sample ID A16, read-out: Solubility assessment 10 vol.", "value": "< 100", "unit": "mg/mL"}, {"measurement": "solubility", "setting": "1,2-dimethoxyethane, 50 °C, thermodynamic from solid, 1,2-dimethoxyethane, sample ID A16, read-out: Solubility assessment 20 vol.", "value": "< 50", "unit": "mg/mL"}, {"measurement": "solubility", "setting": "1,2-dimethoxyethane, 50 °C, thermodynamic from solid, 1,2-dimethoxyethane, sample ID A16, read-out: Solubility assessment 40 vol.", "value": "< 25", "unit": "mg/mL"}, {"measurement": "solubility", "setting": "1,2-dimethoxyethane, 50 °C, thermodynamic from solid, 1,2-dimethoxyethane, sample ID A16, read-out: Solubility assessment 60 vol.", "value": "< 16.7", "unit": "mg/mL"}, {"measurement": "solubility", "setting": "1,4-dioxane, 50 °C, thermodynamic from solid, 1,4-Dioxane, sample ID A14, read-out: Solubility assessment 10 vol.", "value": "< 100", "unit": "mg/mL"}, {"measurement": "solubility", "setting": "1,4-dioxane, 50 °C, thermodynamic from solid, 1,4-Dioxane, sample ID A14, read-out: Solubility assessment 20 vol.", "value": "< 50", "unit": "mg/mL"}, {"measurement": "solubility", "setting": "1,4-dioxane, 50 °C, thermodynamic from solid, 1,4-Dioxane, sample ID A14, read-out: Solubility assessment 40 vol.", "value": "< 25", "unit": "mg/mL"}, {"measurement": "solubility", "setting": "1,4-dioxane, 50 °C, thermodynamic from solid, 1,4-Dioxane, sample ID A14, read-out: Solubility assessment 60 vol.", "value": "< 16.7", "unit": "mg/mL"}, {"measurement": "solubility", "setting": "1-propanol, 50 °C, thermodynamic from solid, 1-propanol, sample ID A8, read-out: Solubility assessment 10 vol.", "value": "< 100", "unit": "mg/mL"}, {"measurement": "solubility", "setting": "1-propanol, 50 °C, thermodynamic from solid, 1-propanol, sample ID A8, read-out: Solubility assessment 20 vol.", "value": "< 50", "unit": "mg/mL"}, {"measurement": "solubility", "setting": "1-propanol, 50 °C, thermodynamic from solid, 1-propanol, sample ID A8, read-out: Solubility assessment 40 vol.", "value": "< 25", "unit": "mg/mL"}, {"measurement": "solubility", "setting": "1-propanol, 50 °C, thermodynamic from solid, 1-propanol, sample ID A8, read-out: Solubility assessment 60 vol.", "value": "< 16.7", "unit": "mg/mL"}, {"measurement": "solubility", "setting": "2-propanol, 50 °C, thermodynamic from solid, 2-propanol, sample ID A6, read-out: Solubility assessment 10 vol.", "value": "< 100", "unit": "mg/mL"}, {"measurement": "solubility", "setting": "2-propanol, 50 °C, thermodynamic from solid, 2-propanol, sample ID A6, read-out: Solubility assessment 20 vol.", "value": "< 50", "unit": "mg/mL"}, {"measurement": "solubility", "setting": "2-propanol, 50 °C, thermodynamic from solid, 2-propanol, sample ID A6, read-out: Solubility assessment 40 vol.", "value": "< 25", "unit": "mg/mL"}, {"measurement": "solubility", "setting": "2-propanol, 50 °C, thermodynamic from solid, 2-propanol, sample ID A6, read-out: Solubility assessment 60 vol.", "value": "< 16.7", "unit": "mg/mL"}, {"measurement": "solubility", "setting": "10% water/EtOH, 50 °C, thermodynamic from solid, 10% water/EtOH, sample ID A22, read-out: Solubility assessment 10 vol.", "value": "50 to 100", "unit": "mg/mL"}, {"measurement": "solubility", "setting": "10% water/EtOH, 50 °C, thermodynamic from solid, 10% water/EtOH, sample ID A22, read-out: Solubility assessment 20 vol.", "value": "50 to 100", "unit": "mg/mL"}, {"measurement": "solubility", "setting": "10% water/IPA, 50 °C, thermodynamic from solid, 10% water/IPA, sample ID A23, read-out: Solubility assessment 10 vol.", "value": "< 100", "unit": "mg/mL"}, {"measurement": "solubility", "setting": "10% water/IPA, 50 °C, thermodynamic from solid, 10% water/IPA, sample ID A23, read-out: Solubility assessment 20 vol.", "value": "< 50", "unit": "mg/mL"}, {"measurement": "solubility", "setting": "10% water/IPA, 50 °C, thermodynamic from solid, 10% water/IPA, sample ID A23, read-out: Solubility assessment 40 vol.", "value": "16.7 to 25", "unit": "mg/mL"}, {"measurement": "solubility", "setting": "10% water/IPA, 50 °C, thermodynamic from solid, 10% water/IPA, sample ID A23, read-out: Solubility assessment 60 vol.", "value": "16.7 to 25", "unit": "mg/mL"}, {"measurement": "solubility", "setting": "10% water/THF, 50 °C, thermodynamic from solid, 10% water/THF, sample ID A24, read-out: Solubility assessment 10 vol.", "value": "< 100", "unit": "mg/mL"}, {"measurement": "solubility", "setting": "10% water/THF, 50 °C, thermodynamic from solid, 10% water/THF, sample ID A24, read-out: Solubility assessment 20 vol.", "value": "< 50", "unit": "mg/mL"}, {"measurement": "solubility", "setting": "10% water/THF, 50 °C, thermodynamic from solid, 10% water/THF, sample ID A24, read-out: Solubility assessment 40 vol.", "value": "16.7 to 25", "unit": "mg/mL"}, {"measurement": "solubility", "setting": "10% water/THF, 50 °C, thermodynamic from solid, 10% water/THF, sample ID A24, read-out: Solubility assessment 60 vol.", "value": "16.7 to 25", "unit": "mg/mL"}, {"measurement": "solubility", "setting": "MEK, 50 °C, thermodynamic from solid, MEK, sample ID A7, read-out: Solubility assessment 10 vol.", "value": "< 100", "unit": "mg/mL"}, {"measurement": "solubility", "setting": "MEK, 50 °C, thermodynamic from solid, MEK, sample ID A7, read-out: Solubility assessment 20 vol.", "value": "< 50", "unit": "mg/mL"}, {"measurement": "solubility", "setting": "MEK, 50 °C, thermodynamic from solid, MEK, sample ID A7, read-out: Solubility assessment 40 vol.", "value": "< 25", "unit": "mg/mL"}, {"measurement": "solubility", "setting": "MEK, thermodynamic from solid, MEK, sample ID A7, read-out: Solubility assessment 60 vol.", "value": "< 16.7", "unit": "mg/mL"}, {"measurement": "solubility", "setting": "MIBK, 50 °C, thermodynamic from solid, MIBK, sample ID A5, read-out: Solubility assessment 10 vol.", "value": "< 100", "unit": "mg/mL"}, {"measurement": "solubility", "setting": "MIBK, 50 °C, thermodynamic from solid, MIBK, sample ID A5, read-out: Solubility assessment 20 vol.", "value": "< 50", "unit": "mg/mL"}, {"measurement": "solubility", "setting": "MIBK, 50 °C, thermodynamic from solid, MIBK, sample ID A5, read-out: Solubility assessment 40 vol.", "value": "< 25", "unit": "mg/mL"}, {"measurement": "solubility", "setting": "MIBK, thermodynamic from solid, MIBK, sample ID A5, read-out: Solubility assessment 60 vol.", "value": "< 16.7", "unit": "mg/mL"}, {"measurement": "solubility", "setting": "TBME, 50 °C, thermodynamic from solid, TBME, sample ID A13, read-out: Solubility assessment 10 vol.", "value": "< 100", "unit": "mg/mL"}, {"measurement": "solubility", "setting": "TBME, 50 °C, thermodynamic from solid, TBME, sample ID A13, read-out: Solubility assessment 20 vol.", "value": "< 50", "unit": "mg/mL"}, {"measurement": "solubility", "setting": "TBME, 50 °C, thermodynamic from solid, TBME, sample ID A13, read-out: Solubility assessment 40 vol.", "value": "< 25", "unit": "mg/mL"}, {"measurement": "solubility", "setting": "TBME, thermodynamic from solid, TBME, sample ID A13, read-out: Solubility assessment 60 vol.", "value": "< 16.7", "unit": "mg/mL"}, {"measurement": "solubility", "setting": "acetone, 50 °C, thermodynamic from solid, Acetone, sample ID A9, read-out: Solubility assessment 10 vol.", "value": "< 100", "unit": "mg/mL"}, {"measurement": "solubility", "setting": "acetone, 50 °C, thermodynamic from solid, Acetone, sample ID A9, read-out: Solubility assessment 20 vol.", "value": "< 50", "unit": "mg/mL"}, {"measurement": "solubility", "setting": "acetone, 50 °C, thermodynamic from solid, Acetone, sample ID A9, read-out: Solubility assessment 40 vol.", "value": "< 25", "unit": "mg/mL"}, {"measurement": "solubility", "setting": "acetone, 50 °C, thermodynamic from solid, Acetone, sample ID A9, read-out: Solubility assessment 60 vol.", "value": "< 16.7", "unit": "mg/mL"}, {"measurement": "solubility", "setting": "acetonitrile, 50 °C, thermodynamic from solid, Acetonitrile, sample ID A19, read-out: Solubility assessment 10 vol.", "value": "< 100", "unit": "mg/mL"}, {"measurement": "solubility", "setting": "acetonitrile, 50 °C, thermodynamic from solid, Acetonitrile, sample ID A19, read-out: Solubility assessment 20 vol.", "value": "< 50", "unit": "mg/mL"}]}]}
